Data as given in the PolyMetriX glass transition set.
± gives the standard deviation of the reports.

Row | SMILES | glass transition temperature
1 | */C=C/c1cc(CCCCCCCCCC)c(/C=C/c2ccc(-c3ccc(*)nc3)cn2)cc1CCCCCCCCCC (repeat unit) | 68.00 °C
2 | *c1cccc(OCCCCOc2cccc(N3C(=O)c4ccc(-c5ccc6c(c5)C(=O)N(*)C6=O)cc4C3=O)c2)c1 (repeat unit) | 175.00 °C
3 | */C=C/c1cccc(/C=C/[Si](C)(C)c2cccc([Si](*)(C)C)c2)c1 (repeat unit) | 28.70 °C
4 | *c1ccc(Oc2ccc(N3C(=O)c4ccc([Si](C)(C)O[Si](C)(C)c5ccc6c(c5)C(=O)N(c5ccc(Oc7ccc(-c8nnc(*)o8)cc7)cc5)C6=O)cc4C3=O)cc2)cc1 (repeat unit) | 190.50 °C
5 | *Oc1ccc(S(=O)(=O)c2ccc(Oc3ccc(C4(c5ccc(*)c(C)c5)CCCCC4)cc3C)cc2)cc1 (repeat unit) | 197.00 °C
6 | *c1ccc(OCCCCCCCCCCCOC(=O)c2ccc(C(=O)OCCCCCCCCCCCOc3ccc(-c4nnc(*)s4)cc3)cc2)cc1 (repeat unit) | 64.00 °C
7 | *c1ccc2c(c1)C(CCCCCC)(CCCCCC)c1cc(-c3cc(OCc4ccccc4)c(*)cc3OCc3ccccc3)ccc1-2 (repeat unit) | 73.00 °C
8 | *CCC(C)(C)CC(C)CNC(=O)CCCCC(=O)N* (repeat unit) | 65.00 °C
9 | *Nc1ccc(-c2ccc(NC(=O)Cc3cc(C)c(CC(*)=O)cc3C)cc2)cc1 (repeat unit) | 171.00 °C
10 | *C(=O)OCC(COc1ccc(/N=N/c2ccc(C#N)cc2)cc1)OC(=O)c1ccc(*)s1 (repeat unit) | 119.00 °C
11 | *O[Si](*)(C)CCCOc1ccc(C(=O)Oc2ccc(-c3ccc(OC(=O)c4cc(OCC)cc(OCC)c4)cc3)cc2)cc1 (repeat unit) | 62.80 °C
12 | *OC(=O)c1ccc(CCCCc2ccc(C(*)=O)cc2)cc1 (repeat unit) | 46.00 °C
13 | *CCCOc1ccc(C(=O)OC(=O)c2ccc(O*)cc2)cc1 (repeat unit) | 95.00 °C
14 | *c1ccc2c(c1)C(=O)N(c1cc(OCCCCCCCCCCCC)cc(N3C(=O)c4ccc(C(*)(C(F)(F)F)C(F)(F)F)cc4C3=O)c1)C2=O (repeat unit) | 165.00 °C
15 | *OC(=O)CNC(=O)CCCCCCCCC(=O)NCC(=O)OC1COC2C(*)COC12 (repeat unit) | 66.00 °C
16 | *Oc1ccccc1C(=O)OC(=O)c1ccccc1OC(=O)CCCCCCCC(*)=O (repeat unit) | 25.00 °C
17 | *Oc1ccc(C(C)(C)c2ccc(C(C)(C)c3ccc(OC(*)=O)cc3)cc2)cc1 (repeat unit) | 154.00 °C
18 | *Oc1ccc(CC(NC(=O)CCc2ccc(OC(=O)CCCCC(*)=O)cc2)C(=O)OC)cc1 (repeat unit) | 70.00 °C
19 | *CC(*)C(=O)OCCCCCn1c2ccccc2c2ccccc21 (repeat unit) | 53.00 °C
20 | *c1ccc(-c2ccc(C3(*)CCCCC3)cc2)cc1 (repeat unit) | 287.00 °C
21 | *c1ccc(Oc2ccc(-c3nc4cc(Oc5ccc(NC(=O)c6cc(C(=O)Nc7ccc(Oc8ccc9nc(-c%10ccccc%10)c(*)nc9c8)cc7)cc(N7C(=O)c8c(Cl)c(Cl)c(Cl)c(Cl)c8C7=O)c6)cc5)ccc4nc3-c3ccccc3)cc2)cc1 (repeat unit) | 295.00 °C
22 | *CCCCCCOC(=O)NC1CCC(CC2CCC(NC(=O)OCCCCCCOc3ccc(CCc4ccc(O*)cc4)cc3)CC2)CC1 (repeat unit) | 40.30 °C
23 | *Nc1cccc(NC(=O)Cc2cc(C)c(CC(*)=O)cc2C)c1 (repeat unit) | 249.00 °C
24 | *c1c(C)cc(Cc2cc(C)c(N3C(=O)c4ccc(Oc5ccc6ccc(Oc7ccc8c(c7)C(=O)N(*)C8=O)cc6c5)cc4C3=O)c(C)c2)cc1C (repeat unit) | 272.00 °C

Row | SMILES | glass transition temperature
25 | *Oc1cccc(Oc2ccc(C(=O)c3ccc(P(=O)(c4ccccc4)c4ccc(C(=O)c5ccc(*)cc5)cc4)cc3)cc2)c1 (repeat unit) | 201.00 °C
26 | *CCCCCCOC(=O)CCCCCNC(=O)CCCCC(=O)NCCCCCC(=O)O* (repeat unit) | -7.00 °C
27 | *Cc1cc(COC(=O)Nc2ccc(Cc3ccc(NC(=O)O*)cc3)cc2)cc(C(C)(C)C)c1 (repeat unit) | 114.00 °C
28 | *c1ccc(C(=O)c2ccc(Oc3ccc(-c4nn(*)c(=O)c5ccccc45)cc3Br)cc2)cc1 (repeat unit) | 254.00 °C
29 | *CC(O)COc1ccc(C(C)(C)c2ccc(OCC(O)COc3ccc(S(=O)(=O)c4ccc(O*)cc4)cc3)cc2)cc1 (repeat unit) | 140.00 °C
30 | *CC(*)(C)C(=O)OCCCCCCOc1ccc(/N=N/c2ccc(C#N)cc2)cc1 (repeat unit) | 61.00 °C
31 | *C(=O)c1ccc2c(c1)C(=O)N(c1ccc(C(c3ccc(N4C(=O)c5ccc(*)cc5C4=O)cc3)(C(F)(F)F)C(F)(F)F)cc1)C2=O (repeat unit) | 308.03 °C
32 | *CC(*)(C)C(=O)OCCCCCCCCCCOc1ccc(C#Cc2cc(OC)c(/C=C/c3ccncc3)cc2OC)cc1 (repeat unit) | 87.10 °C
33 | *CC(*)C(=O)Oc1ccccc1Cl (repeat unit) | 318.00 °C
34 | *Oc1ccc(CC(NC(=O)Cc2ccc(OC(=O)COCC(*)=O)cc2)C(=O)OCC)cc1 (repeat unit) | 66.00 °C
35 | *c1ccc(Oc2ccc(Oc3ccc(Oc4ccc(N5C(=O)C6CCC(C7CCC8C(=O)N(*)C(=O)C8C7)CC6C5=O)cc4)cc3)cc2)cc1 (repeat unit) | 217.00 °C
36 | *Sc1ccc(Sc2ccc(Sc3ccc4c(c3)C(=O)N(N3C(=O)c5cccc(*)c5C3=O)C4=O)cc2)cc1 (repeat unit) | 242.00 °C
37 | *CC(*)c1ccccc1C(=O)OC(C)C (repeat unit) | 146.00 °C
38 | *CCOC(=O)O* (repeat unit) [Poly(ethylene carbonate)] | 10.92 ± 8.4 °C
39 | *Oc1ccc(NC(=O)c2cc(NC(=O)c3ccc(OC(C)=O)cc3)cc(C(=O)Nc3ccc(Oc4ccc(C(C)(C)c5ccc(*)cc5)cc4)cc3)c2)cc1 (repeat unit) | 243.00 °C
40 | *c1ccc2c(c1)C(=O)N(c1ccc(Oc3ccc(C(=O)c4cccc(C(=O)c5ccc(Oc6ccc(N7C(=O)c8ccc(C(*)(C(F)(F)F)C(F)(F)F)cc8C7=O)cc6)cc5)c4)cc3)cc1)C2=O (repeat unit) | 236.00 °C
41 | *C(F)(F)C(=O)NCCCCCCNS(*)(=O)=O (repeat unit) | 52.00 °C
42 | *CCCN(*)C(=O)CCCCC (repeat unit) | -16.00 °C
43 | *c1ccc(-c2c(-c3ccccc3)nc3ccc(Oc4ccc5nc(-c6ccccc6)c(*)c(-c6ccccc6)c5c4)cc3c2-c2ccccc2)cc1 (repeat unit) | 311.00 °C
44 | *Nc1ccc(NC(=O)c2ccc(NC(=O)CCCCCCCCCCC(=O)Nc3ccc(C(*)=O)cc3)cc2)cc1C(=O)OCCCCCCCCCCCCCC (repeat unit) | 199.50 °C
45 | *Nc1cccc(NC(=O)c2ccc(C(*)=O)cc2)c1 (repeat unit) | 238.00 °C
46 | *CCCCCCNC(=O)c1ccc(C(C)(CC)c2ccc(C(=O)N*)cc2)cc1 (repeat unit) | 164.00 °C
47 | *Nc1cccc2c1C(=O)c1cccc(N[Se]*)c1C2=O (repeat unit) | 52.00 °C
